Results as given in patent publication US7652047B2, “Phenylamino isothiazole carboxamidines as MEK inhibitors” (Ardea Biosciences, Inc., priority 2005, dated 2010).

The compounds below were run against T1, MEK1^CA (human GST-MEK1, constitutively active, Ser218Asp and Ser222Asp) (Homo sapiens, UniProt Q02750, S218D/S222D) (assay: MEK1 enzymatic activity assay (MEK1^CA / ERK2 / MBP, [γ-33P]ATP incorporation)). Conditions: Table 1, compounds of formula I; read-out: Avg IC50.
T1 construct: GST; made in house; host or cells: Escherichia coli
T1 sequence (Q02750 whole entry S218D/S222D): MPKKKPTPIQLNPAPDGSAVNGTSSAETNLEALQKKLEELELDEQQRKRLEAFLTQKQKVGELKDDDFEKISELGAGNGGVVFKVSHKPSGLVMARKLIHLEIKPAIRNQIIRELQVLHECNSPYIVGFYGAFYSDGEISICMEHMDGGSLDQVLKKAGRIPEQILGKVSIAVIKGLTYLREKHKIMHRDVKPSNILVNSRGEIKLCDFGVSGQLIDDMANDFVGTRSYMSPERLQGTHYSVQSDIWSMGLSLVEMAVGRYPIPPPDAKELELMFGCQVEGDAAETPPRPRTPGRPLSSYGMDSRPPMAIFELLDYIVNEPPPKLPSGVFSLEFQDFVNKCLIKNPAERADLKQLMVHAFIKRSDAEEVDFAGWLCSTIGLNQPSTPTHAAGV
Type: biochemical
Source text: Materials and preparation of reagents: Human GST-MEK1 and the constitutively active allele GST-MEK1^CA (harboring the mutations Ser218Asp and Ser222Asp) were subcloned into the […] expression vector pGEM4Z (Promega, Madison, Wis.) from the wild type human MEK1 cDNA. GST-MEK1^CA was expressed in Escherichia coli and partially purified using Glutathione Sepharose 4B affinity resin (Amersham Pharmacia Biotech, Piscataway, N.J.). The ERK2 allele was subcloned from MAPK2/Erk2 cDNA (wild type) in pUSEamp (Upstate Biotechnology, Inc., Waltham, Mass.) into the vector pET21a (Novagen, Madison, Wis.) resulting in an N-terminal histidine-tagged mouse ERK2 allele. […] Myelin basic protein (MBP) was purchased from Gibco BRL (Rockville, Md.). EasyTides adenosine 5′-triphosphate (ATP) ([γ-^33P]) (NEN Perkin Elmer, Wellesley, Mass.) was the source of radiolabel for all kinase reactions. Activated Raf-1 (truncated) and activated MAPKinase 2/ERK2 were purchased from Upstate, Inc. (Lake Placid, N.Y.). 4-20% Criterion Precast gels were purchased from Bio-Rad (Hercules, Calif.).
A typical 25-microliter assay contained 0.002 nanomoles MEK1^CA, 0.02 nanomoles ERK2, 0.25 nanomoles MBP, 0.25 nanomoles unlabeled ATP, and 0.1 μCi [γ^33P] ATP. The screening assay essentially comprised four additions. Five μl of diluted compound were dispensed to 96-well assay plates. Ten μl of 2.5× enzyme cocktail (MEK1^CA and ERK2 only) were then added to each well followed by a pre-incubation for 30 minutes at ambient temperature. […] Finally, 100 μl of 10% trichloroacetic acid (TCA) were added and incubated for 30 minutes at room temperature to halt the reaction and precipitate radiolabeled protein products. Reaction products were harvested on glass fiber 96 well filter plates prewetted with water and 1% pyrophosphate. The filter plate was then washed 5 times with water. Water was displaced by absolute ethanol and the plate was allowed to air dry for 30 minutes at room temperature. A back seal was applied manually and 40 μl of scintillation cocktail were dispensed to each well. A top seal was applied and the plate was counted in the TopCount for two seconds per well.

First: CC(C)(CO)CNC(=N)c1c(O)nsc1Nc1ccc(Oc2ccccc2)cc1 [compound 143]
Second: CC(C)(CO)NC(=N)c1c(O)nsc1Nc1ccc(Oc2ccccc2)cc1 [compound 188]
The IC50 of the first is lower: 1 to 100 nM for the first, 100 to 500 nM for the second.

`N=C(N[C@H]1CC[C@H](O)CC1)c1c(O)nsc1Nc1ccc(Oc2ccccc2)cc1` [compound 152] and `CC1(C)C2CCC1[C@H](CNC(=N)c1c(O)nsc1Nc1ccc(Oc3ccccc3)cc1)CC2` (stereo partly shown) [compound 46] fall in the same range of IC50: 1 to 100 nM for the first, 1 to 100 nM for the second.

`CC(CO)NC(=N)c1c(O)nsc1Nc1ccc(Oc2ccc(Cl)cc2)cc1` (stereo not shown) [compound 191] and `Cc1ccc(Oc2ccc(Nc3snc(O)c3C(=N)NC(C)CO)cc2)cc1` (stereo not shown) [compound 247] fall in the same range of IC50: 100 to 500 nM for the first, 100 to 500 nM for the second.

`CC(C)NC(=N)c1c(O)nsc1Nc1ccc(Oc2cccc(C(F)(F)F)c2Cl)c(Cl)c1` [compound 364] and `CC(C)NC(=N)c1c(O)nsc1Nc1ccc(Oc2cccc(C(F)(F)F)c2Cl)cc1` [compound 269] fall in the same range of IC50: 1 to 100 nM for the first, 1 to 100 nM for the second.

First: CC(CO)NC(=N)c1c(O)nsc1Nc1ccc(Oc2ccccc2F)c(F)c1 (stereo not shown) [compound 303]
Second: CC(CO)NC(=N)c1c(O)nsc1Nc1ccc(Oc2cccc(F)c2F)nc1 (stereo not shown) [compound 432]
The IC50 of the first is lower: 1 to 100 nM for the first, 100 to 500 nM for the second.

`CCOC(=O)c1ccccc1Oc1ccc(Nc2snc(O)c2C(=N)NC(C)CO)cc1` (stereo not shown) [compound 494] and `CC(CO)NC(=N)c1c(O)nsc1Nc1ccc(Oc2ccccc2Br)cc1` (stereo not shown) [compound 295] fall in the same range of IC50: 1 to 100 nM for the first, 1 to 100 nM for the second.

Compared with `CCC[C@H]1CC[C@H](c2ccc(Nc3snc(O)c3C(=N)NCCO)cc2)CC1` [compound 161], `CC(C)NC(=N)c1c(O)nsc1Nc1ccc([C@H]2CC[C@H](OC(=O)C(C)C)CC2)cc1` [compound 197] is lower in IC50: greater than 500 nM for the first, 100 to 500 nM for the second. The second is the more potent here.

First: CN1CCCC1CCNC(=N)c1c(O)nsc1Nc1ccc(Oc2ccccc2)cc1 (stereo not shown) [compound 148]
Second: CCCNC(=N)c1c(O)nsc1Nc1ccc(Oc2ccccc2)cc1 [compound 201]
The IC50 of the first is higher: greater than 500 nM for the first, 100 to 500 nM for the second.

`N=C(NCC(O)CO)c1c(O)nsc1Nc1ccc(Oc2ccccc2C(=O)NCC(O)CO)cc1` (stereo not shown) [compound 508] and `CC(=O)Nc1ccc(Oc2ccc(Nc3snc(O)c3C(=N)NCC(O)CO)cc2)cc1` (stereo not shown) [compound 145] cannot be ordered by IC50: greater than 500 nM for the first, greater than 500 nM for the second.

Compared with `CC(C)CNC(=N)c1c(O)nsc1Nc1ccc(Oc2ccccc2)cc1` [compound 202], `CC(C)C(CO)NC(=N)c1c(O)nsc1Nc1ccc(Oc2ccccc2)cc1` (stereo not shown) [compound 179] is higher in IC50: 1 to 100 nM for the first, 100 to 500 nM for the second. The first is the more potent here.

First: CC(C)N(O)C(=N)c1c(O)nsc1Nc1ccc(Oc2ccccc2)cc1 [compound 144]
Second: CC(C)(C)CCNC(=N)c1c(O)nsc1Nc1ccc(Oc2ccccc2)cc1 [compound 41]
The IC50 of the first is lower: 1 to 100 nM for the first, 100 to 500 nM for the second.

`N=C(NCC1CCCCC1)c1c(O)nsc1NC12CC3CC(CC(C3)C1)C2` [compound 92] and `CC(C)Nc1snc(O)c1C(=N)NCC1CCCCC1` [compound 117] cannot be ordered by IC50: greater than 500 nM for the first, greater than 500 nM for the second.

First: Cc1cc(Oc2cc(Cl)ccc2Cl)ccc1Nc1snc(O)c1C(=N)NC(C)CO (stereo not shown) [compound 461]
Second: CCC(CO)NC(=N)c1c(O)nsc1Nc1ccc(Oc2cccc(F)c2F)cc1C (stereo not shown) [compound 504]
The IC50 of the first is lower: 1 to 100 nM for the first, 100 to 500 nM for the second.

Compared with `CC(C)NC(=N)c1c(O)nsc1Nc1ccc(Oc2cc(F)cc(C(F)(F)F)c2)cc1` [compound 358], `Cc1cc(C)cc(Oc2ccc(Nc3snc(O)c3C(=N)NC(C)C)cc2)c1` [compound 267] is lower in IC50: 100 to 500 nM for the first, 1 to 100 nM for the second. The second is the more potent here.

`N=C(NCc1cccc2ccccc12)c1c(O)nsc1Nc1ccccc1` [compound 87] and `N=C(NCc1cccc2ccccc12)c1c(O)nsc1Nc1cc(C(F)(F)F)cc(C(F)(F)F)c1` [compound 68] cannot be ordered by IC50: greater than 500 nM for the first, greater than 500 nM for the second.

`N=C(NCCO)c1c(O)nsc1Nc1ccc(-c2nc3ccccc3[nH]2)cc1` [compound 511] and `N=C(NCCO)c1c(O)nsc1Nc1ccc(Cc2ccccc2)cc1` [compound 146] cannot be ordered by IC50: greater than 500 nM for the first, greater than 500 nM for the second.

Compared with `CC(C)NC(=N)c1c(O)nsc1Nc1ccccc1Oc1ccccc1` [compound 456], `CC(C)NC(=N)c1c(O)nsc1Nc1ccc(Oc2cccc(F)c2F)cc1` [compound 326] is lower in IC50: 100 to 500 nM for the first, 1 to 100 nM for the second.

Compared with `CC(C)NC(=N)c1c(O)nsc1Nc1ccc(Oc2cc(F)ccc2Cl)cc1` [compound 308], `CC(C)NC(=N)c1c(O)nsc1Nc1ccc(Oc2cc(F)ccc2F)cc1` [compound 349] is lower in IC50: 100 to 500 nM for the first, 1 to 100 nM for the second.

Compared with `N=C(NCC1CCCCC1)c1c(O)nsc1Nc1ccc(Oc2ccc(F)cc2)cc1` [compound 142], `N=C(NCC1CCCCC1)c1c(O)nsc1Nc1ccc(CO)cc1` [compound 57] is higher in IC50: 1 to 100 nM for the first, greater than 500 nM for the second. The first is the more potent here.

`CC(C)NC(=N)c1c(O)nsc1Nc1ccc(Oc2cc(Cl)ccc2Cl)nc1` [compound 431] and `CC(C)NC(=N)c1c(O)nsc1Nc1ccc(Oc2cc(Cl)ccc2Cl)c(F)c1` [compound 367] fall in the same range of IC50: 1 to 100 nM for the first, 1 to 100 nM for the second.

Compared with `CC(CO)NC(=N)c1c(O)nsc1Nc1ccc(Oc2ccc(F)cc2)c(Br)c1` (stereo not shown) [compound 209], `CC(CO)NC(=N)c1c(O)nsc1Nc1ccc(Oc2cccc(Br)c2)cc1` (stereo not shown) [compound 251] is lower in IC50: 100 to 500 nM for the first, 1 to 100 nM for the second.

First: CC(C)NC(=N)c1c(O)nsc1Nc1ccc(Oc2cccnc2)c(Cl)c1 [compound 336]
Second: CC(C)NC(=N)c1c(O)nsc1Nc1ccc(Oc2cccc(Cl)c2F)cc1 [compound 366]
The IC50 of the first is higher: greater than 500 nM for the first, 1 to 100 nM for the second. The second is the more potent here.

Compared with `CC(C)NC(=N)c1c(O)nsc1Nc1ccc(-n2cccn2)cc1` [compound 314], `CC(C)NC(=N)c1c(O)nsc1Nc1ccc(Oc2cncnc2)cc1` [compound 169] is lower in IC50: greater than 500 nM for the first, 100 to 500 nM for the second.

Compared with `Cc1ccc(S(=O)(=O)NC(=N)c2c(O)nsc2Nc2ccc(Oc3ccccc3)cc2)cc1` [compound 151], `C[C@H](NC(=N)c1c(O)nsc1Nc1ccc(Oc2ccccc2)cc1)[C@@H](O)c1ccccc1` [compound 159] is lower in IC50: greater than 500 nM for the first, 1 to 100 nM for the second.

`CCC(CO)NC(=N)c1c(O)nsc1Nc1ccc(Oc2cccc(C(F)(F)F)c2)cc1C` (stereo not shown) [compound 473] and `CC(CO)NC(=N)c1c(O)nsc1Nc1ccc(Oc2cccc(Cl)c2)cc1` (stereo not shown) [compound 252] fall in the same range of IC50: 1 to 100 nM for the first, 1 to 100 nM for the second.

First: CCOC(=O)c1ccc(Oc2ccc(Nc3snc(O)c3C(=N)NC(C)C)cc2)cc1 [compound 485]
Second: Cc1cccc(Cl)c1Oc1ccc(Nc2snc(O)c2C(=N)NC(C)C)cc1 [compound 344]
The IC50 of the first is lower: 100 to 500 nM for the first, greater than 500 nM for the second. The first is the more potent here.

`CC(C)c1ccc(Nc2snc(O)c2C(N)=NCC(O)CO)cc1` (stereo not shown) [compound 70] and `CC(CO)NC(=N)c1c(O)nsc1Nc1ccc(/C=C/c2ccccc2)cc1` (stereo not shown) [compound 240] fall in the same range of IC50: 100 to 500 nM for the first, 100 to 500 nM for the second.

`N=C(NCCO)c1c(O)nsc1Nc1ccc(Oc2ccc(Cl)cc2Cl)cc1` [compound 221] and `Cc1ccc(Cl)cc1Oc1ccc(Nc2snc(O)c2C(=N)NC(C)C)cc1` [compound 311] fall in the same range of IC50: 100 to 500 nM for the first, 100 to 500 nM for the second.

`N=C(NCC(O)CO)c1c(O)nsc1Nc1cc(C(F)(F)F)cc(C(F)(F)F)c1` (stereo not shown) [compound 67] and `N=C(NCC1CCCCC1)c1c(O)nsc1NCc1ccc(C(F)(F)F)cc1` [compound 108] cannot be ordered by IC50: greater than 500 nM for the first, greater than 500 nM for the second.

First: CCCCc1ccc(Nc2snc(O)c2C(=N)NCC2CCCCC2)cc1 [compound 94]
Second: N=C(NCC1CCCCC1)c1c(O)nsc1Nc1ccc(N2CCOCC2)nc1 [compound 132]
The IC50 of the first is lower: 100 to 500 nM for the first, greater than 500 nM for the second.

Compared with `N/C(=N\CC1CCCCC1)c1c(O)nsc1Nc1ccccc1C(=O)NCC1CCCCC1` [compound 88], `CC(C)NC(=N)c1c(O)nsc1Nc1ccc(Cl)cc1Cl` [compound 225] is lower in IC50: greater than 500 nM for the first, 1 to 100 nM for the second. The second is the more potent here.

`N=C(NCCN1CCOCC1)c1c(O)nsc1Nc1ccc(Oc2cc(F)cc(F)c2)cc1` [compound 413] and `N=C(NCCc1cccs1)c1c(O)nsc1Nc1ccc(Oc2ccccc2)cc1` [Cpd 18] fall in the same range of IC50: 100 to 500 nM for the first, 100 to 500 nM for the second.

`CC(C)NC(=N)c1c(O)nsc1Nc1ccc(Oc2cc(F)ccc2Cl)c(F)c1` [compound 319] and `CC(C)NC(=N)c1c(O)nsc1Nc1ccc(Oc2cccc(Cl)c2Cl)cc1` [compound 341] fall in the same range of IC50: 1 to 100 nM for the first, 1 to 100 nM for the second.

First: Cc1cc(Oc2ccc(F)cc2Cl)ccc1Nc1snc(O)c1C(=N)N(O)Cc1ccccc1 [compound 463]
Second: N=C(NCCc1ccc(O)cc1)c1c(O)nsc1NCCc1ccc(O)cc1 [compound 114]
The IC50 of the first is lower: 1 to 100 nM for the first, greater than 500 nM for the second.

Same assay, conditions: Table 2, Ar1-A contains an amido or indolo group; read-out: IC 50

`N/C(=N\CC1CCCCC1)c1c(O)nsc1Nc1ccccc1C(=O)NCC1CCCCC1` [E-1] and `CC(CO)NC(=N)c1c(O)nsc1Nc1ccc(C(=O)Nc2ccccc2)cc1` (stereo not shown) [E-5] cannot be ordered by IC50: greater than 1000 nM for the first, greater than 1000 nM for the second.

`CC(C)NC(=N)c1c(O)nsc1Nc1ccc(C(=O)Nc2ccccc2)cc1` [E-7] and `N=C(NCCCCO)c1c(O)nsc1Nc1ccc(C(=O)N2CCc3ccccc32)cc1` [E-14] cannot be ordered by IC50: greater than 1000 nM for the first, greater than 1000 nM for the second.

Same assay, conditions: Table 3, benzamides of formula X; read-out: IC 50

`CC(C)NC(=N)c1c(O)nsc1Nc1ccc(C(=O)Nc2ccccc2)cc1` [drawing 810] was tested, and the IC50 was 1 to 100 nM.
